# Molecular target: Apolipoprotein L1 (Homo sapiens, UniProt O14791)
# Assay: Inhibition of APOL1 G1 variant in human HEK293-T-REx cells measured by Thallium assay
# Assay type: cell-based
row,IC50 [nM],Structure (SMILES)
1,> 1000,CCNC(=O)NC[C@H]1C[C@H](c2c(-c3ccc(F)cc3)[nH]c3c(F)cc(F)cc32)C1
2,> 1000,NC(=O)CN[C@H]1C[C@H](c2c(-c3ccc(F)cc3)[nH]c3c(F)cc(F)cc32)C1
3,> 1000,Cc1ccc(CNC(=O)O[C@H]2C[C@H](c3c(-c4ccc(F)cc4)[nH]c4c(F)cc(F)cc43)C2)o1
4,> 1000,CC(C)(O)CCNC(=O)C1CC(Cc2c(-c3ccc(F)cc3)[nH]c3c(F)cc(F)cc23)C1 (stereo not given)
5,> 1000,CC(C)C(CO)NC(=O)O[C@H]1C[C@H](c2c(-c3ccc(F)cc3)[nH]c3c(F)cc(F)cc32)C1 (stereo not given in full)
6,> 1000,COC[C@H](C)NC(=O)O[C@H]1C[C@H](c2c(-c3ccc(F)cc3)[nH]c3c(F)cc(F)cc32)C1
7,> 1000,C[C@@H](O)CNC(=O)C1CC(Cc2c(-c3ccc(F)cc3)[nH]c3c(F)cc(F)cc23)C1 (stereo not given in full)
8,> 1000,COCCNC(=O)CC1CC(c2c(-c3ccc(F)cc3)[nH]c3c(F)cc(F)cc23)C1 (stereo not given)
9,> 1000,O=C(NCc1ccco1)O[C@H]1C[C@H](c2c(-c3ccc(F)cc3)[nH]c3c(F)cc(F)cc32)C1
10,> 1000,O=C(NCC1CCOC1)O[C@H]1C[C@H](c2c(-c3ccc(F)cc3)[nH]c3c(F)cc(F)cc32)C1 (stereo not given in full)
11,0.25,C[C@H](NCC1CC(c2c(-c3ccc(F)cc3)[nH]c3c(F)cc(F)cc23)C1)C(=O)N(C)C (stereo not given in full)
12,> 1000,CN(C(=O)NC[C@H]1C[C@H](c2c(-c3ccc(F)cc3)[nH]c3c(F)cc(F)cc32)C1)C1COCC1O (stereo not given in full)
13,0.25,O=C(N[C@@H](CO)C(F)F)[C@H]1C[C@@H](c2c(-c3ccc(F)cc3)[nH]c3c(F)cc(F)cc32)C1
14,> 1000,O=C(NCC1CCOC1)C1CC(Cc2c(-c3ccc(F)cc3)[nH]c3c(F)cc(F)cc23)C1 (stereo not given)
15,> 1000,CC1(NC(=O)C2CC(Cc3c(-c4ccc(F)cc4)[nH]c4c(F)cc(F)cc34)C2)CCNC1=O (stereo not given)
16,> 1000,CC(NC(=O)C1CC(Cc2c(-c3ccc(F)cc3)[nH]c3c(F)cc(F)cc23)C1)C1CCOC1 (stereo not given)
17,> 1000,CC(O)(CO)CNC(=O)O[C@H]1C[C@H](c2c(-c3ccc(F)cc3)[nH]c3c(F)cc(F)cc32)C1 (stereo not given in full)
18,< 250,O=C(NC1(CO)CC1)C1(F)CC(c2c(-c3ccc(F)cc3)[nH]c3c(F)cc(F)cc23)C1 (stereo not given)
19,> 1000,COC1(CNC(=O)C2CC(Cc3c(-c4ccc(F)cc4)[nH]c4c(F)cc(F)cc34)C2)CCOC1 (stereo not given)
20,> 1000,C[C@H](O)[C@H](CO)NC(=O)O[C@H]1C[C@H](c2c(-c3ccc(F)cc3)[nH]c3c(F)cc(F)cc32)C1
21,0.25,CC(C)(CO)NC(=O)[C@H]1C[C@@H](c2c(-c3ccc(F)cc3)[nH]c3c(F)cc(F)cc32)C1
22,> 1000,O=C(NC1(CO)CC(F)(F)C1)C1CC(Cc2c(-c3ccc(F)cc3)[nH]c3c(F)cc(F)cc23)C1 (stereo not given)
23,> 1000,O=C(CNC(=O)[C@H]1C[C@H](c2c(-c3ccc(F)cc3)[nH]c3c(F)cc(F)cc32)C1)NC[C@@H](O)C(F)(F)F
24,> 1000,CC[C@H](NCC1CC(c2c(-c3ccc(F)cc3)[nH]c3c(F)cc(F)cc23)C1)C(=O)NCC(F)(F)F (stereo not given in full)
25,< 250,O=C(CNC[C@H]1C[C@H](c2c(-c3ccc(F)cc3)[nH]c3c(F)cc(F)cc32)C1)NCO
26,> 1000,CC[C@@H](CO)NC(=O)NC[C@H]1C[C@H](c2c(-c3ccc(F)cc3)[nH]c3c(F)cc(F)cc32)C1
27,0.25,CC(C)(CO)NC(=O)O[C@H]1C[C@H](c2c(-c3ccc(F)cc3)[nH]c3c(F)cc(F)cc32)C1
28,> 1000,C[C@H](CO)NC(=O)CC1CC(c2c(-c3ccc(F)cc3)[nH]c3c(F)cc(F)cc23)C1 (stereo not given in full)

row,Structure (SMILES),IC50 [nM]
1,C[C@]1(NC(=O)[C@H]2C[C@H](c3c(-c4ccc(F)cc4)[nH]c4c(F)cc(F)cc43)C2)C[C@@H](O)C1,0.25
2,O=C([C@H]1C[C@H](c2c(-c3ccc(F)cc3)[nH]c3c(F)cc(F)cc32)C1)N(CCOCCO)C1CCC1,> 1000
3,O=C(N[C@@H]1CCC[C@H]1O)[C@H]1C[C@H](c2c(-c3ccc(F)cc3)[nH]c3c(F)cc(F)cc32)C1,> 1000
4,O=C([C@H]1C[C@H](c2c(-c3ccc(F)cc3)[nH]c3c(F)cc(F)cc32)C1)N1CCOC[C@@H]1CO,0.25
5,CC(=O)C1CCCCN1C(=O)[C@H]1C[C@H](c2c(-c3ccc(F)cc3)[nH]c3c(F)cc(F)cc32)C1 (stereo not given in full),> 1000
6,Cn1cc(CNC(=O)[C@H]2C[C@H](c3c(-c4ccc(F)cc4)[nH]c4c(F)cc(F)cc43)C2)cn1,> 1000
7,O=C([C@H]1C[C@H](c2c(-c3ccc(F)cc3)[nH]c3c(F)cc(F)cc32)C1)N1CC[C@H]1CO,0.25
8,CC(C)[C@@H](CO)NC(=O)[C@H]1C[C@H](c2c(-c3ccc(F)cc3)[nH]c3c(F)cc(F)cc32)C1,> 1000
9,CC1(O)CC(C(=O)N2CCN(C(=O)[C@H]3C[C@H](c4c(-c5ccc(F)cc5)[nH]c5c(F)cc(F)cc54)C3)CC2(C)C)C1 (stereo not given in full),> 1000
10,CC(O)CN(CCO)C(=O)[C@H]1C[C@H](c2c(-c3ccc(F)cc3)[nH]c3c(F)cc(F)cc32)C1 (stereo not given in full),0.25
11,COCCNC(=O)[C@H]1C[C@H](c2c(-c3ccc(F)cc3)[nH]c3c(F)cc(F)cc32)C1,> 1000

# Tested on: Trypanosoma brucei brucei
# Assay: Antitrypanosomal activity against Trypanosoma brucei brucei assessed as trypanosome lysis using recombinant APOL1 protein G1 variant and measured by Alamar blue based fluoresence assay
# Assay type: functional, organism-based
row,Structure (SMILES),IC50 [nM]
1,C[C@]1(NC(=O)[C@H]2C[C@H](c3c(-c4ccc(F)cc4)[nH]c4c(F)cc(F)cc43)C2)C[C@@H](O)C1,250
2,O=C([C@H]1C[C@H](c2c(-c3ccc(F)cc3)[nH]c3c(F)cc(F)cc32)C1)N(CCOCCO)C1CCC1,> 1000
3,O=C(N[C@@H]1CCC[C@H]1O)[C@H]1C[C@H](c2c(-c3ccc(F)cc3)[nH]c3c(F)cc(F)cc32)C1,> 1000
4,O=C([C@H]1C[C@H](c2c(-c3ccc(F)cc3)[nH]c3c(F)cc(F)cc32)C1)N1CCOC[C@@H]1CO,< 250
5,CC(=O)C1CCCCN1C(=O)[C@H]1C[C@H](c2c(-c3ccc(F)cc3)[nH]c3c(F)cc(F)cc32)C1 (stereo not given in full),250
6,Cn1cc(CNC(=O)[C@H]2C[C@H](c3c(-c4ccc(F)cc4)[nH]c4c(F)cc(F)cc43)C2)cn1,250
7,O=C([C@H]1C[C@H](c2c(-c3ccc(F)cc3)[nH]c3c(F)cc(F)cc32)C1)N1CC[C@H]1CO,< 250
8,CC(C)[C@@H](CO)NC(=O)[C@H]1C[C@H](c2c(-c3ccc(F)cc3)[nH]c3c(F)cc(F)cc32)C1,> 1000
9,CC1(O)CC(C(=O)N2CCN(C(=O)[C@H]3C[C@H](c4c(-c5ccc(F)cc5)[nH]c5c(F)cc(F)cc54)C3)CC2(C)C)C1 (stereo not given in full),> 1000
10,CC(O)CN(CCO)C(=O)[C@H]1C[C@H](c2c(-c3ccc(F)cc3)[nH]c3c(F)cc(F)cc32)C1 (stereo not given in full),< 250
11,COCCNC(=O)[C@H]1C[C@H](c2c(-c3ccc(F)cc3)[nH]c3c(F)cc(F)cc32)C1,250

# Source: ChEMBL document CHEMBL5052856, “Inhibitors of apol1 and methods of using same” (2021)
